The values below are quoted from earlier work in patent US20220226302A1, “ENHANCEMENT OF CAMP SIGNALING AS A COMBINATION DRUG STRATEGY FOR THE TREATMENT OF DEPRESSION AND RELATED CONDITIONS” (Altos Neuroscience, Inc., priority 2021, published 2022).

The test system of series [1] is PDE4. Conditions: in vivo.
The conditions of series [2]: in vivo.
Series [3] deals with PDE4.
For series [4], the system named is depression. To be noted: patients with depression, small clinical trials.
Series [5] concerns depression. To be noted: two acute treatment clinical trials, humans.

As for `O=C(Nc1c(Cl)cncc1Cl)c1ccc(OC(F)F)c(OCC2CC2)c1` [Roflumilast, roflumilast], in the series on PDE4 [1], the antidepressant effect result was “no evidence of an antidepressant effect” and the pro-cognitive effect result is “pro-cognitive effects”. In addition, the brain penetration entry in series [2] is given as “can also reach the brain”.
`COc1ccc(C2CNC(=O)C2)cc1OC1CCCC1` (centres unmarked) [rolipram]: the “phenotype of treated mice” value in the series on PDE4 [3] was “antidepressant and pro-cognitive phenotypes”. Besides, in the series with depression [4], the “improvement in depression versus TCA medications” value was “In none of these studies, however, did rolipram produce a greater improvement in depression than the TCA medications”.
In the case of `CCOC(=O)COc1ccc2c(c1)C[C@@H](NC[C@H](O)c1cccc(Cl)c1)CC2` [amibegron], the brain penetration result in series [2] was “brain penetrant”. The “efficacy in clinical trials for depression” value with depression [5] is on record as “failed to show efficacy in two acute treatment clinical trials”. The “antidepressant-like effects in animals” value with β3 adrenergic receptor is on record as “promising antidepressant-like effects in animals”.
